Measured values reported in paper PMC2779801, “Comparative biochemical analysis of HIV-1 subtype B and C integrase enzymes” (Retrovirology, 2009).
Where two headings read alike, the source gives them in different places.

Assays:
[1] = biological target: T1, HIV-1 subtype B integrase (Human immunodeficiency virus type 1, UniProt P12497); assay: Disintegration assay; type: biochemical; settings: increasing inhibitor concentration
From the text: Oligonucleotides were purchased from Invitrogen and then PAGE purified.
ATP (Perkin Elmer). Unincorporated nucleotides were discarded utilizing 'NucAway columns' (Ambion).

[2] = biological target: T2, HIV-1 subtype C integrase (Human immunodeficiency virus type 1, UniProt Q9QN97, C991S/F896H); settings: for Inhibition of disintegration: increasing inhibitor concentration
Protocol: (§1) Oligonucleotide-based assays were performed to measure integrase enzymatic activities. All oligonucleotide probes were gel purified and phenol-chloroform extracted. INT1 oligonucleotide was radiolabeled using the T4 Polynucleotide Kinase kit (Ambion) with [γ-^32P] ATP (Perkin Elmer). Unincorporated nucleotides were discarded utilizing 'NucAway columns' (Ambion). A double stranded oligonucleotide substrate was obtained by mixing equal concentrations of INT1 and INT2, heating to 95°C and stepwise cooling to 37°C in 100 mM NaCl. The oligonucleotides T35 and SK70 were annealed to form a second double stranded oligonucleotide. INT1/2 mimicked the HIV-1 U5 long terminal repeat (LTR) and acted as a substrate for 3' processing. T35/SK70 acted as a site for integration of the processed INT1/2 fragment and mimicked host DNA.
Concentrations of enzymes used in the following reactions were optimized in a series of preliminary experiments. Integrase reactions were performed in a buffer containing 20 mM Hepes (pH 7.5), 30 mM NaCl, 1 mM dithiothreitol, 125 μM ZnCl2 and 0.125 pmol dsDNA substrate (INT1/2) in a final volume of 10 μl. Recombinant integrase (3.1 μM), and varying concentrations of integrase inhibitors or water/DMSO as control, were mixed and preincubated at 37°C for 15 min. 3' processing reactions were initiated by addition of 7.5 mM of MnCl2 and incubated at 37°C for 3 min unless otherwise indicated. For strand transfer reactions, 1.25 pmol of dsDNA template (T35/SK70) were added and the reaction mixture was further incubated at 37°C for 1 hour unless otherwise indicated. Reactions were stopped by adding 5 times the volume of gel loading dye (formamide containing 1% SDS, 0.25% bromophenol blue, and 0.25% xylene cyanol) and heating to 95°C. Reaction products were separated on 6% acrylamide, 7 M urea sequencing gels. Gels were dried and exposed utilizing phosphorimager screens (GE Healthcare) and scanned in a Molecular Dynamics Typhoon Phosphorimager (GE Healthcare). Product analysis and quantification were conducted using ImageQuant and GraphPad Prism 4.0 software. Quantification of standard error of the mean (SEM) was performed with GraphPad Prism 4.0 software.

Subtype B virus 5331 = assay: Cell culture phenotypic drug susceptibility assay (p24 antigen) in cord blood mononuclear cells; type: cell-based, HIV-1; settings: read-out: EC50 Values
Protocol: (§2) Recombinant viruses (subtype B) (pNL4-3 and IIIb) and viruses obtained from either our primary HIV infection cohort or from long-term infected patients (subtype B and C) were amplified as previously described. Drug susceptibility was measured in cell culture-based phenotypic assays using cord blood mononuclear cells to determine the extent of […] HIV replication blockage by integrase inhibitors.

Subtype B virus IIIb = assay: as above; type: cell-based, HIV-1; settings: read-out: EC50 Values
Protocol: as §2

Subtype B virus pNL4-3 = assay: as above; type: cell-based, HIV-1; settings: read-out: EC50 Values
Protocol: as §2

Subtype C virus 4742 = assay: as above; type: cell-based, HIV-1
Protocol: as §2

Subtype C virus 96USNG31 = assay: as above; type: cell-based, HIV-1
Protocol: as §2

Subtype C virus BG-05 = assay: as above; type: cell-based, HIV-1
Protocol: as §2

Subtype C virus HB-1 = assay: as above; type: cell-based, HIV-1
Protocol: as §2

[3] = biological target: T1, HIV-1 subtype B integrase; type: biochemical; settings: Mn2+-based assay, 95% confidence interval in brackets
Protocol: as §1
Concentrations of enzymes used in the following reactions were optimized in a series of preliminary experiments. Integrase reactions were performed in a buffer containing 20 mM Hepes (pH 7.5), 30 mM NaCl, 1 mM dithiothreitol, 125 μM ZnCl2 and 0.125 pmol dsDNA substrate (INT1/2) in a final volume of 10 μl. […] Product analysis and quantification were conducted using ImageQuant and GraphPad Prism 4.0 software. Quantification of standard error of the mean (SEM) was performed with GraphPad Prism 4.0 software.

[4] = biological target: T1, HIV-1 subtype B integrase; type: biochemical; settings: Mg2+-based microtiter plate assay, 95% confidence interval in brackets, read-out: Strand Transfer IC50
Protocol: A microtiter plate assay was utilized to evaluate MgCl2-mediated strand transfer as previously described [24, 31]. Briefly, biotinylated oligonucleotides mimicking LTR donor DNA (5'-biotin-[sequence] and 5'-[sequence]) were immobilized onto black-colour Reacti-Bind Streptavidin-coated plates (ThermoFisher). 313 nM recombinant enzyme was bound to donor DNA on the plates in the presence of 25 mM MnCl2 and the plates were then washed to remove excess unbound enzyme. […] Covalently linked target DNA was detected through use of an anti-FITC antibody conjugated to alkaline phosphatase (Roche) and a chemiluminescence substrate (CSPD Sapphire II, Applied Biosystems). Integrase inhibitors were added at increasing concentrations shortly before the addition of target DNA. Strand transfer was evaluated by chemiluminescence.

[5] = biological target: T2, HIV-1 subtype C integrase; settings: read-out: Strand Transfer IC50, Mg2+-based microtiter plate assay, 95% confidence interval in brackets
Protocol: A microtiter plate assay was utilized to evaluate MgCl2-mediated strand transfer as previously described. Briefly, biotinylated oligonucleotides mimicking LTR donor DNA (5'-biotin-[…] and 5'-[…]) were immobilized onto black-colour Reacti-Bind Streptavidin-coated plates (ThermoFisher). 313 nM recombinant enzyme was bound to donor DNA on the plates in the presence of 25 mM […] and the plates were then washed to remove excess unbound enzyme. […] Covalently linked target DNA was detected through use of an anti-FITC antibody conjugated to alkaline phosphatase (Roche) and a chemiluminescence substrate (CSPD Sapphire II, Applied Biosystems). Integrase inhibitors were added at increasing concentrations shortly before the addition of target DNA. Strand transfer was evaluated by chemiluminescence.

Subtype B virus 5326 = assay: Cell culture phenotypic drug susceptibility assay (p24 antigen) in cord blood mononuclear cells; type: cell-based, HIV-1; settings: read-out: EC50 Values
Protocol: as §2

Subtype B virus BK 132 = assay: as above; type: cell-based, HIV-1; settings: read-out: EC50 Values
Protocol: as §2

Subtype C virus Mole 03 = assay: as above; type: cell-based, HIV-1
Protocol: as §2

[6] = Human immunodeficiency virus 1, read-out: EC50 Values

| SMILES | Inhibition of disintegration [1] | Inhibition of disintegration [2] | EC50 (Subtype B virus 5331) | EC50 (Subtype B virus IIIb; IIIB) | EC50 (Subtype B virus pNL4-3) | EC50 (Subtype C virus 4742; [6]) | EC50 (Subtype C virus 96USNG31; [6]) | EC50 (Subtype C virus BG-05; [6]) | EC50 (Subtype C virus HB-1; [6]) | also measured |
| --- | --- | --- | --- | --- | --- | --- | --- | --- | --- | --- |
| COc1cc2c(cc1Cc1cccc(Cl)c1F)c(=O)c(C(=O)O)cn2[C@H](CO)C(C)C [EVG, elvitegravir] | neither RAL nor EVG had much effect | neither RAL nor EVG had much effect | 0.1 ± 0.07 nM | 1.8 ± 0.6 nM | 0.9 ± 0.3 nM | 2.2 ± 0.2 nM | 0.8 ± 0.6 nM | 0.8 ± 0.04 nM | 0.1 ± 0.01 nM | – |
| CCN1C[C@H](C)n2c(c(O)c3c(=O)n(Cc4ccc(F)c(Cl)c4)nc(C(=O)NC)c32)C1=O [MK-2048] | inhibited by high concentrations of MK-2048 | inhibited by high concentrations of MK-2048 | – | – | – | – | – | – | – | IC50 ([3]; read-out: 3' Processing IC50): 580 nM; IC50 ([3]; read-out: Strand Transfer IC50): 75 nM; IC50 [4]: 4.7 nM; IC50 [5]: 2.3 nM; IC50 ([2]; read-out: 3' Processing IC50, Mn2+-based assay, 95% confidence interval in brackets): 190 nM; IC50 ([2]; read-out: Strand Transfer IC50, Mn2+-based assay, 95% confidence interval in brackets): 80 nM; EC50 (Subtype B virus 5326; Subtype B virus 5326, cord blood mononuclear cells, p24 antigen): 7.2 ± 2.1 nM; EC50 (Subtype B virus 5331; Subtype B virus 5331, cord blood mononuclear cells, p24 antigen): 1 ± 0.2 nM; EC50 (Subtype B virus BK 132; Subtype B virus BK 132, cord blood mononuclear cells, p24 antigen): 14.8 ± 3.2 nM; EC50 (Subtype B virus IIIb; Subtype B virus IIIb, cord blood mononuclear cells, p24 antigen): 0.3 ± 0.1 nM; EC50 (Subtype B virus pNL4-3; Subtype B virus pNL4-3, cord blood mononuclear cells, p24 antigen): 2.7 ± 0.9 nM; EC50 (Subtype C virus 4742; Subtype C virus 4742, cord blood mononuclear cells, p24 antigen, read-out: EC50 Values): 3.3 ± 2 nM; EC50 (Subtype C virus 96USNG31; Subtype C virus 96USNG31, cord blood mononuclear cells, p24 antigen, read-out: EC50 Values): 1.5 ± 0.1 nM; EC50 (Subtype C virus BG-05; Subtype C virus BG-05, cord blood mononuclear cells, p24 antigen, read-out: EC50 Values): 2.2 ± 0.7 nM; EC50 (Subtype C virus HB-1; Subtype C virus HB-1, cord blood mononuclear cells, p24 antigen, read-out: EC50 Values): 0.7 ± 0.5 nM; EC50 (Subtype C virus Mole 03; Subtype C virus Mole 03, cord blood mononuclear cells, p24 antigen, read-out: EC50 Values): 1.1 ± 0.1 nM |
| Cc1nnc(C(=O)NC(C)(C)c2nc(C(=O)NCc3ccc(F)cc3)c(O)c(=O)n2C)o1 [RAL, raltegravir] | neither RAL nor EVG had much effect | neither RAL nor EVG had much effect | 5.6 ± 2.2 nM | 1.2 ± 0.5 nM | 8.2 ± 1.3 nM | 20.6 ± 9 nM | 8.7 ± 0.7 nM | 6.7 ± 0.9 nM | 1.5 ± 0.4 nM | EC50 (Subtype B virus 5326): 24.3 ± 2.5 nM; EC50 (Subtype B virus BK 132): 30.1 ± 5.4 nM; EC50 (Subtype C virus Mole 03; [6]): 4.6 ± 0.2 nM |
